Key:
(CBA×C57 B1) F1 mice = assay: Chronic lymphocyte-induced GVHR in irradiated (6 Gy) mice; format: in vivo; conditions: for Survival (%) / Survival (mice): after 60 days; for Survival (%): control 60; for Survival (mice): of 10 mice, control 6
Protocol: Recipient (CBA×C57 B1) F1 mice were irradiated with the dose of 6 Gy. Two hours after irradiation they were intravenously injected with 6 mln lymphocytes from mesenteric lymph nodes of C57B1 donor mice. […] The peptide was injected intraperitoneally once daily, 5 days a week, until day 21, for a total of 14 injections.
Indicators of the degree of GVHR development were animal weight and lymphocyte and leukocyte count. The animals were weighed every 3 days. On day 14 and day 28 lymphocyte and leukocyte count were determined using peripheral blood.

[1] = system: allogenic bone marrow (C57B1 donor, F1 (CBA×C57B1) recipient); assay: Taking of allogenic bone marrow transplant and survival; format: in vivo, mice
Protocol: The preparations were administered daily for the first 5 days after transplantation of bone marrow transplants of donor mice C57B1 to lethally irradiated recipient mice F1 (CBA×C57B1), starting from the 1st hour after the transplantation.

[2] = system: hemopoietic progenitor cells (CFU-S); assay: CFU-S content in bone marrow of mice irradiated with 4 Gy; format: in vivo; conditions: day 8, control 401 ± 48
Protocol: The effect of H-A-D-Trp-Y, where A is D-Glu or D-iGlu and Y is OH or a substituted amide, on protection and reconstitution of the population of hemopoietic progenitor cells in cytopenias of different origin was studied.
Ionising radiation was used to deplete bone marrow. Donor mice were irradiated at a dose of 4 Gy. For each of the two peptides, 10 μg/kg was injected intraperitoneally 1 hour, 1 day or 2 days before the irradiation (groups of 12 mice each). Bone marrow was taken from femoral bones 8 days after the irradiation. Eight days generally marks the beginning of an exponential reconstitution of both the total number of cells and the population of hemopoietic progenitors in the bone marrow, which were depleted as a result of irradiation.
On the 8th day a sharp statistically significant increase was recorded in the hemopoietic progenitor cells count in the bone marrow of the mice irradiated in the dose of 4 Gy who had received the peptide 2 days before the irradiation.

[3] = system: patients with cytopenias of immune origin; assay: Clinical study: tolerability; format: in vivo
Protocol: The peptide iDD was given to patients with cytopenias of immune origin and its effect on hemopoietic status was assessed using a number of immunological tests characterising both humoral and cellular immunity.
The iDD was administered 0.1 mg in a 1 ml dose intranasally (once or twice in divided doses) for 5 days. The regime was repeated after a two week interval. For patients receiving steroids and cytostatics, iDD was administered during the therapy or before the cytostatic treatment.

[4] = system: Intact bone marrow cells (hemopoietic stem cells); assay: Spleen colony formation after in vitro treatment of intact bone marrow cells; format: cell-based, mice; conditions: for Colony count: Table 4, control 9,0 ± 0,6
Protocol: The effect of peptides of the present invention on a population of hemopoietic progenitors was studied by testing for colony formation by hemopoietic stem cells in spleens of irradiated mice.
Intact bone marrow cells were incubated at 37° C. for 1 hour with different concentrations of the peptide ranging from […]/ml. The suspension was injected to lethally irradiated recipient mice. After 8 days the animals were killed and spleen colonies were counted.
The treatment was carried out as described above in Example 4(a).

## H-D-iGlu-D-Trp-OH [iDD]
(CBA×C57 B1) F1 mice; Dose 10 μ/kg, Day 5, initial average 18.3 g
  Animal Weight: 18.0 grams
(CBA×C57 B1) F1 mice; Dose 10 μ/kg, Day 8
  Animal Weight: 18.3 grams
(CBA×C57 B1) F1 mice; Dose 10 μ/kg, Day 12
  Animal Weight: 18.3 grams
(CBA×C57 B1) F1 mice; Dose 10 μ/kg, Day 14
  Animal Weight: 17.8 grams
(CBA×C57 B1) F1 mice; Dose 10 μ/kg, Day 19
  Animal Weight: 17.6 grams
(CBA×C57 B1) F1 mice; Dose 10 μ/kg, Day 21
  Animal Weight: 17.8 grams
(CBA×C57 B1) F1 mice; Dose 10 μ/kg, Day 23
  Animal Weight: 18.6 grams
(CBA×C57 B1) F1 mice; Dose 10 μ/kg, Day 26
  Animal Weight: 18.9 grams
(CBA×C57 B1) F1 mice; Dose 10 μ/kg, Day 30
  Animal Weight: 18.9 grams
(CBA×C57 B1) F1 mice; Dose 10 μ/kg, Day 33
  Animal Weight: 18.9 grams
(CBA×C57 B1) F1 mice; Dose 10 μ/kg, Day 40
  Animal Weight: 19.2 grams
(CBA×C57 B1) F1 mice; Dose 10 μ/kg, Day 47
  Animal Weight: 19.9 grams
(CBA×C57 B1) F1 mice; Dose 10 μ/kg, Day 54
  Animal Weight: 20.0 grams
(CBA×C57 B1) F1 mice; Dose 10 μ/kg, Day 60
  Animal Weight: 20.0 grams
(CBA×C57 B1) F1 mice; Dose 100 μ/kg, Day 5, initial average 18.3 g
  Animal Weight: 18.6 grams
(CBA×C57 B1) F1 mice; Dose 100 μ/kg, Day 8
  Animal Weight: 18.5 grams
(CBA×C57 B1) F1 mice; Dose 100 μ/kg, Day 12
  Animal Weight: 18.6 grams
(CBA×C57 B1) F1 mice; Dose 100 μ/kg, Day 14
  Animal Weight: 19.0 grams
(CBA×C57 B1) F1 mice; Dose 100 μ/kg, Day 19
  Animal Weight: 19.0 grams
(CBA×C57 B1) F1 mice; Dose 100 μ/kg, Day 21
  Animal Weight: 19.3 grams
(CBA×C57 B1) F1 mice; Dose 100 μ/kg, Day 23
  Animal Weight: 19.6 grams
(CBA×C57 B1) F1 mice; Dose 100 μ/kg, Day 26
  Animal Weight: 19.6 grams
(CBA×C57 B1) F1 mice; Dose 100 μ/kg, Day 30
  Animal Weight: 19.7 grams
(CBA×C57 B1) F1 mice; Dose 100 μ/kg, Day 33
  Animal Weight: 19.7 grams
(CBA×C57 B1) F1 mice; Dose 100 μ/kg, Day 40
  Animal Weight: 20.0 grams
(CBA×C57 B1) F1 mice; Dose 100 μ/kg, Day 47
  Animal Weight: 20.3 grams
(CBA×C57 B1) F1 mice; Dose 100 μ/kg, Day 54
  Animal Weight: 20.4 grams
(CBA×C57 B1) F1 mice; Dose 100 μ/kg, Day 60
  Animal Weight: 20.4 grams
(CBA×C57 B1) F1 mice; Dose 1000 μ/kg, Day 5, initial average 18.3 g
  Animal Weight: 19.1 grams
(CBA×C57 B1) F1 mice; Dose 1000 μ/kg, Day 8
  Animal Weight: 19.1 grams
(CBA×C57 B1) F1 mice; Dose 1000 μ/kg, Day 12
  Animal Weight: 18.9 grams
(CBA×C57 B1) F1 mice; Dose 1000 μ/kg, Day 14
  Animal Weight: 18.9 grams
(CBA×C57 B1) F1 mice; Dose 1000 μ/kg, Day 19
  Animal Weight: 19.4 grams
(CBA×C57 B1) F1 mice; Dose 1000 μ/kg, Day 21
  Animal Weight: 19.6 grams
(CBA×C57 B1) F1 mice; Dose 1000 μ/kg, Day 23
  Animal Weight: 19.8 grams
(CBA×C57 B1) F1 mice; Dose 1000 μ/kg, Day 26
  Animal Weight: 19.8 grams
(CBA×C57 B1) F1 mice; Dose 1000 μ/kg, Day 30
  Animal Weight: 20.0 grams
(CBA×C57 B1) F1 mice; Dose 1000 μ/kg, Day 33
  Animal Weight: 20.0 grams
(CBA×C57 B1) F1 mice; Dose 1000 μ/kg, Day 40
  Animal Weight: 20.2 grams
(CBA×C57 B1) F1 mice; Dose 1000 μ/kg, Day 47
  Animal Weight: 20.5 grams
(CBA×C57 B1) F1 mice; Dose 1000 μ/kg, Day 54
  Animal Weight: 20.1 grams
(CBA×C57 B1) F1 mice; Dose 1000 μ/kg, Day 60
  Animal Weight: 20.4 grams
(CBA×C57 B1) F1 mice; Dose 10 μ/kg
  Survival (%): 90%
  Survival (mice): 9
(CBA×C57 B1) F1 mice; Dose 100 μ/kg
  Survival (%): 90%
  Survival (mice): 9
(CBA×C57 B1) F1 mice; Dose 1000 μ/kg
  Survival (%): 80%
  Survival (mice): 8
(CBA×C57 B1) F1 mice; peripheral blood, day 14 and day 28, Table 20 not given
  Lymphocyte and leukocyte counts versus control mice: significantly higher
[1]; C57B1 marrow to F1, Cyclosporin A 25μg/kg sc, iDD 10μg/kg ip, untreated 17,3
  CFU-S taking root, %: 43%
[1]; C57B1 marrow to F1, daily 5 days, Cyclosporin A 25μg/kg sc, iDD 10μg/kg ip, per 10^5 cells, untreated 1,7 ± 0,3
  Average colony count: 4,2 ± 0,3
[1]; after 42 days, control 14,3
  MCL (Medium continuation of life): 6,0
[1]; after 42 days, control 50
  Survived mice, %: 93%
[2]; 10 μg/kg IP 1 hour before 4 Gy
  CFU-S count per femur: 394 ± 57
[2]; 10 μg/kg IP 1 day before 4 Gy
  CFU-S count per femur: 324 ± 63
[2]; 10 μg/kg IP 2 days before 4 Gy
  CFU-S count per femur: 677 ± 49
[3]; before and after 1-3 treatment courses
  Dynamics of biochemical indices: no changes
[3]; before and after the treatment
  Somatic status (physical examinations): no changes
[3]; iDD courses
  Changes in AP dynamics and ECG: not observed
[3]; prolonged administration (5-6 courses), 0.1 mg intranasally for 5 days
  Toxic and adverse reactions: no toxic reactions
[4]; Table 4, in the presence of the peptide
  Decrease of number of spleen colonies: more than 50%
[4]; peptide dose 0,1 μg/ml, no thymocytes
  Colony count: 4,4 ± 0,5
[4]; peptide dose 0,02 μg/ml, no thymocytes
  Colony count: 3,6 ± 0,5
[4]; peptide dose 1,0 μg/ml, no thymocytes
  Colony count: 4,3 ± 0,3
[4]; peptide dose 10,0 μg/ml, no thymocytes
  Colony count: 4,3 ± 0,1
[4]; peptide dose 10,0 μg/ml, with thymocytes 2 × 10^7 cells
  Colony count: 8,7 ± 0,4
[4]; peptide dose 20,0 μg/ml, no thymocytes
  Colony count: 3,9 ± 0,4

Source: patent publication US6410515B1, “Peptide, a method for its preparation and a pharmaceutical composition containing the peptide” (Immunotech Developments Inc., priority 1995, dated 2002)
